Reference: patent publication US20130035232A1, “INDUCTION AND STABILIZATION OF ENZYMATIC ACTIVITY IN MICROORGANISMS” (GEORGIA STATE UNIVERSITY RESEARCH FOUNDATION, INC., priority 2010, published 2013)

Assays:
[1] = test system: Brevibacterium ketoglutaricum ATCC 21533; assay: Growth on supplemented YEMEA (visual grade); type: cell-based; design: key: (−) meaning no detectable growth; (+/−) meaning scant growth; (+) meaning little growth; (++) meaning good growth; (+++) meaning very good growth; (++++) meaning excellent growth; conditions: 30 °C, 7.5 g/L urea, 10 ppm cobalt, supplement 3.8 mM
Protocol: (§1) The relative growth of various nitrile hydratase producing microorganisms was evaluated. All strains were grown on YEMEA medium containing 7.5 g/L of urea and 10 ppm cobalt (provided as cobalt chloride) supplemented with asparagine (ASN), glutamine (GLN), or both asparagine and glutamine. The asparagine and glutamine were added at a concentration of 3.8 mM. Growth temperature was in the range of 26° C. to 30° C. Growth was evaluated by visual inspection and graded on the following scale: (−) meaning no detectable growth; (+/−) meaning scant growth; (+) meaning little growth; (++) meaning good growth; (+++) meaning very good growth; and (++++) meaning excellent growth.

[2] = test system: Pseudomonas chloroaphis ATCC 43051; assay: Growth on supplemented YEMEA (visual grade); type: cell-based; design: key: (−) meaning no detectable growth; (+/−) meaning scant growth; (+) meaning little growth; (++) meaning good growth; (+++) meaning very good growth; (++++) meaning excellent growth; conditions: 30 °C, 7.5 g/L urea, 10 ppm cobalt, supplement 3.8 mM
Protocol: as §1

[3] = test system: Rhodococcus sp. DAP 96253 ATCC 55899; assay: Growth on supplemented YEMEA (visual grade); type: cell-based; design: key: (−) meaning no detectable growth; (+/−) meaning scant growth; (+) meaning little growth; (++) meaning good growth; (+++) meaning very good growth; (++++) meaning excellent growth; conditions: 30 °C, 7.5 g/L urea, 10 ppm cobalt, supplement 3.8 mM
Protocol: as §1

[4] = test system: Rhodococcus rhodochrous DAP 96622 ATCC 55898; assay: Growth on supplemented YEMEA (visual grade); type: cell-based; design: key: (−) meaning no detectable growth; (+/−) meaning scant growth; (+) meaning little growth; (++) meaning good growth; (+++) meaning very good growth; (++++) meaning excellent growth; conditions: 26 °C, 7.5 g/L urea, 10 ppm cobalt, supplement 3.8 mM
Protocol: as §1

[5] = test system: Rhodococcus erythropolis ATCC 47072; assay: Growth on supplemented YEMEA (visual grade); type: cell-based; design: key: (−) meaning no detectable growth; (+/−) meaning scant growth; (+) meaning little growth; (++) meaning good growth; (+++) meaning very good growth; (++++) meaning excellent growth; conditions: 26 °C, 7.5 g/L urea, 10 ppm cobalt, supplement 3.8 mM
Protocol: as §1

[6] = test system: Pseudomonas chloroaphis ATCC 13985; assay: Growth on supplemented YEMEA (visual grade); type: cell-based; design: key: (−) meaning no detectable growth; (+/−) meaning scant growth; (+) meaning little growth; (++) meaning good growth; (+++) meaning very good growth; (++++) meaning excellent growth; conditions: 26 °C, 7.5 g/L urea, 10 ppm cobalt, supplement 3.8 mM
Protocol: as §1

amidase [7] = assay: Amidase production on supplemented medium; type: cell-based; conditions: YEMEA, urea, cobalt, supplement 3.8 mM
Protocol: (§2) The induction of nitrile hydratase production and amidase production in various nitrile hydratase producing microorganisms was evaluated. All strains were grown on YEMEA medium containing 7.5 g/L of urea and 10 ppm cobalt (provided as cobalt chloride) supplemented with asparagine (ASN), glutamine (GLN), or both asparagine and glutamine. The asparagine and glutamine were added at a concentration of 3.8 mM. As a comparative, enzyme production with no supplementation was also tested. Growth temperature was in the range of 26° C. to 30° C.

asparaginase I [8] = assay: Asparaginase I production on supplemented medium; type: cell-based; conditions: YEMEA, 7.5 g/L urea, 10 ppm cobalt
Protocol: as §2, with “asparaginase I” for “nitrile hydratase production and amidase”, “production” for “production with no supplementation”, “evaluated with supplementation with acrylonitrile (AN), acrylamide (AMD) or acrylonitrile and acrylamide.” for “tested.”

nitrile hydratase [9] = assay: Nitrile hydratase induction by inducers (Example 1); type: cell-based, Rhodococcus sp., strain DAP 96253; conditions: inducer 1000 ppm
Protocol: (§3) The induction of nitrile hydratase activity and amidase activity in Rhodococcus sp., strain DAP 96253, was evaluated using multiple types of inducers (1000 ppm). Three different samples were cultured in YEMEA medium containing 10 ppm cobalt and 7.5 g/L urea and supplemented with acrylonitrile, asparagine, or glutamine. The specific nitrile hydratase activity and the specific amidase activity in each sample was evaluated, and the results are provided below in Table 3, with activities provided in units/mg cdw (cell dry weight). One unit of nitrile hydratase activity relates to the ability to convert 1 μmol of acrylonitrile to its corresponding amide per minute, per milligram of cells (dry weight) at a pH of 7.0 and a temperature of 30° C. One unit of amidase activity relates to the ability to convert 1 μmol of acrylamide to its corresponding acid per minute, per milligram of cells (dry weight) pH of 7.0 and a temperature of 30° C.

nitrile hydratase [10] = assay: Nitrile hydratase production on supplemented medium; type: cell-based; conditions: YEMEA, urea, cobalt, supplement 3.8 mM
Protocol: as §2

asparaginase I [11] = assay: 20 liter fermentation with asparagine feed: asparaginase I; type: cell-based, Rhodococcus sp. DAP 96253; conditions: end of 20 liter fermentation; asparagine 0.15M at 1000 μl/min from t=10 hour; FIG. 5
Protocol: Rhodococcus sp. DAP 96253 were grown using biphasic medium as the source of inoculum for a 20 liter fermentation. The supplemental addition of medium/carbohydrate (either YEMEA, dextrose or maltose) was made to the modified R2A medium, containing cottonseed hydrolysate substituted for the Proteos Peptone 3 (PP3). Asparagine (0.15M solution) was added at a continuous rate of 1000 μl/min beginning at t=10 hour. At the end of the fermentation run, 159 units per milligram cell dry weight of acrylonitrile specific nitrile hydratase, 22 units of amidase per milligram cell dry weight, and 16 g/l cell packed wet weight were produced.

amidase [12] = assay: Amidase induction by inducers (Example 1); type: cell-based, Rhodococcus sp., strain DAP 96253
Protocol: as §3

[13] = Brevibacterium ketoglutaricum ATCC 21533, 30 °C
[14] = Pseudomonas chloroaphis ATCC 13985, 26 °C
[15] = Pseudomonas chloroaphis ATCC 43051, 30 °C
[16] = Rhodococcus erythropolis ATCC 47072, 26 °C
[17] = Rhodococcus rhodochrous DAP 96622 ATCC 55898, 26 °C
[18] = Rhodococcus sp. DAP 96253 ATCC 55899, 30 °C

## NC(=O)C[C@H](N)C(=O)O [Asparagine, asparagine]
[1]
  Growth: +
[2]
  Growth: +
[3]
  Growth: ++++
[4]
  Growth: ++++
[5]
  Growth: ++
[6]
  Growth: +
Amidase [7]; [13]
  Amidase Level Based on Growth Medium Supplementation: 0 Units/mg cdw
Amidase [7]; [14]
  Amidase Level Based on Growth Medium Supplementation: 14 Units/mg cdw
Amidase [7]; [15]
  Amidase Level Based on Growth Medium Supplementation: 0 Units/mg cdw
Amidase [7]; [16]
  Amidase Level Based on Growth Medium Supplementation: 9 Units/mg cdw
Amidase [7]; [17]
  Amidase Level Based on Growth Medium Supplementation: 10 Units/mg cdw
Amidase [7]; [18]
  Amidase Level Based on Growth Medium Supplementation: 13 Units/mg cdw
Asparaginase I [8]; [13]
  Asparaginase I Level Based on Growth Medium Supplementation: 19.1 Units/mg cdw
Asparaginase I [8]; [14]
  Asparaginase I Level Based on Growth Medium Supplementation: 0 Units/mg cdw
Asparaginase I [8]; [15]
  Asparaginase I Level Based on Growth Medium Supplementation: 18.4 Units/mg cdw
Asparaginase I [8]; [16]
  Asparaginase I Level Based on Growth Medium Supplementation: 1 Units/mg cdw
Asparaginase I [8]; [17]
  Asparaginase I Level Based on Growth Medium Supplementation: 12.3 Units/mg cdw
Asparaginase I [8]; [18]
  Asparaginase I Level Based on Growth Medium Supplementation: 12.5 Units/mg cdw
Nitrile hydratase [9]; Rhodococcus sp. DAP 96253, YEMEA, 10 ppm cobalt, 7.5 g/L urea
  Nitrile Hydratase Activity: 170.50 Units/mg cdw
Nitrile hydratase [9]
  nitrile hydratase induction compared with acrylonitrile: exceeds the ability of acrylonitrile to induce such activity
Nitrile hydratase [10]; [13]
  Nitrile Hydratase Level Based on Growth Medium Supplementation: 30 Units/mg cdw
Nitrile hydratase [10]; [14]
  Nitrile Hydratase Level Based on Growth Medium Supplementation: 14 Units/mg cdw
Nitrile hydratase [10]; [15]
  Nitrile Hydratase Level Based on Growth Medium Supplementation: 28 Units/mg cdw
Nitrile hydratase [10]; [16]
  Nitrile Hydratase Level Based on Growth Medium Supplementation: 48 Units/mg cdw
Nitrile hydratase [10]; [17]
  Nitrile Hydratase Level Based on Growth Medium Supplementation: 158 Units/mg cdw
Nitrile hydratase [10]; [18]
  Nitrile Hydratase Level Based on Growth Medium Supplementation: 155 Units/mg cdw
Asparaginase I [11]
  asparaginase I produced: 16 units per milligram cell dry weight
Amidase [12]; Rhodococcus sp. DAP 96253, YEMEA, 10 ppm cobalt, 7.5 g/L urea, inducer 1000 ppm
  Amidase Activity: 13.24 Units/mg cdw
Amidase [12]; relative to acrylonitrile as inducer, 1000 ppm
  amidase activity greater than that resulting from acrylonitrile: approximately 74%
